The text below walks through data of patent publication US5434246A, “Parathyroid hormone derivatives” (Takeda Chemical Industries, Ltd., priority 1992, dated 1995).

Square brackets hold non-standard residues; d marks the D form. Ends that are not written are not given here. Peptide text beside a SMILES is read from it. Orn = NCCC[C@H](N)C(=O)O

This experiment deals with T1, PTH receptor (Mus musculus, UniProt P41593).
T1 construct: a mouse cranial bone-derived osteoblast-like cell strain, MC3T3-EI cells; endogenous in cells; host or cells: MC3T3-E1 mouse osteoblast-like cells
T1 sequence (P41593 27-591): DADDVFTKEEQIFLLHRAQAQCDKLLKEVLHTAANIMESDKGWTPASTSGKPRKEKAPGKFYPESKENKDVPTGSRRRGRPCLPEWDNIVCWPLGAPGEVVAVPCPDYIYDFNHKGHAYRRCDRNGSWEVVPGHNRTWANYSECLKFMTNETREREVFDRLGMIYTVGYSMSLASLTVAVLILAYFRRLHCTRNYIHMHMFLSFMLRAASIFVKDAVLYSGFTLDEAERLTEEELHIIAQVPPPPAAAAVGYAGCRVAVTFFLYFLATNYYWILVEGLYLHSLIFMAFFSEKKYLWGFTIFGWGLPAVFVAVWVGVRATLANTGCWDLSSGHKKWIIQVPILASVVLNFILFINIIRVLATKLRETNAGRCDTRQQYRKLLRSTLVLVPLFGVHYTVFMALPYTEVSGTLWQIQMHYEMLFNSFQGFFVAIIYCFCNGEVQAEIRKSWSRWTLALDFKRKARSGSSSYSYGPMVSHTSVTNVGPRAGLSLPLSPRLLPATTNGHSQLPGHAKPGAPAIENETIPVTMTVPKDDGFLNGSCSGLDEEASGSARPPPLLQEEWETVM
In words: cAMP production in MC3T3-EI osteoblast-like cells (biological activity of PTH(1-34) derivatives). The following applies: 0.01-100 nM derivative, room temperature 30 minutes, hPTH(1-34) standard = 1.00. It is filed as cell-based. The procedure: The biological activity of the PTH (1-34) derivatives was evaluated by a modified version of the method reported by Shigeno et al. in The Journal of Biological Chemistry 263, 18369-18377 (1988). A culture solution (Hank's solution, containing 20 mM N-2-hydroxyethylpiperazine-N'-2-ethanesulfonic acid-(HEPES), 0.1% bovine serum albumin and 0.5 mM isobutylmethyl-xanthine) containing a 0.01, 0.1, 1, 10 or 100 nM derivative was added in an amount of 100 μl to a mouse cranial bone-derived osteoblast-like cell strain, MC3T3-EI cells, cultivated on a 96-well multiplate (Nunclon, Nunc), followed by reaction at room temperature for 30 minutes. After addition of 100 μl of 0.2N hydrochloric acid, the mixture was immersed in boiling water for 2.5 minutes, and cyclic adenosine monophosphate (cAMP) produced by a PTH receptor was extracted from the cells. The total cAMP in the culture solution and the cells was assayed using a commercial radioimmunoassay kit (cyclic AMP [^125 I] kit "Du Pont-Daiichi", Daiichi Kagaku Yakuhin).
A general note: Changes in cAMP serve as a functional read-out for many G protein-coupled receptors.
As for `CC[C@H](C)[C@H](NC(=O)[C@H](CCC(=O)O)NC(=O)[C@@H](C)NC(=O)[C@@H](NC(=O)[C@@H](N)CO)C(C)C)C(=O)N[C@@H](CCC(N)=O)C(=O)N[C@@H](CC(C)C)C(=O)N[C@@H](CCSC)C(=O)N[C@@H](Cc1c[nH]cn1)C(=O)N[C@@H](CC(N)=O)C(=O)N[C@@H](CC(C)C)C(=O)NCC(=O)N[C@@H](CCCCN)C(=O)N[C@@H](Cc1c[nH]cn1)C(=O)N[C@@H](CC(C)C)C(=O)N[C@@H](CC(N)=O)C(=O)N[C@@H](CO)C(=O)N[C@@H](CCSC)C(=O)N[C@@H](CCC(=O)O)C(=O)N[C@@H](CCCNC(=N)N)C(=O)N[C@H](C(=O)N[C@@H](CCC(=O)O)C(=O)N[C@@H](Cc1c[nH]c2ccccc12)C(=O)N[C@@H](CC(C)C)C(=O)N[C@@H](CCCNC(=N)N)C(=O)N[C@@H](CCCCN)C(=O)N[C@@H](CCCCN)C(=O)N[C@@H](CC(C)C)C(=O)N[C@@H](CCC(N)=O)C(=O)N[C@@H](CC(=O)O)C(=O)N[C@H](C(=O)N[C@@H](Cc1c[nH]cn1)C(=O)N[C@@H](CC(N)=O)C(=O)N[C@@H](Cc1ccccc1)C(=O)O)C(C)C)C(C)C` [[D-Ala^3]hPTH(1-34)], the “Biological Activity, Represented by Relative Activity to hPTH(1-34)” value was 2.17. In the case of `CC[C@H](C)[C@H](NC(=O)[C@H](CCC(=O)O)NC(=O)[C@H](CO)NC(=O)[C@@H](NC(=O)[C@@H](N)CO)C(C)C)C(=O)N[C@@H](CCC(N)=O)C(=O)N[C@@H](CC(C)C)C(=O)N[C@@H](CCSC)C(=O)N[C@@H](Cc1c[nH]cn1)C(=O)N[C@@H](CC(N)=O)C(=O)N[C@@H](CC(C)C)C(=O)NCC(=O)N[C@@H](CCCCN)C(=O)N[C@@H](Cc1c[nH]cn1)C(=O)N[C@@H](CC(C)C)C(=O)N[C@@H](CCCN)C(=O)N[C@@H](CO)C(=O)N[C@@H](CCSC)C(=O)N[C@@H](CCC(=O)O)C(=O)N[C@@H](CCCNC(=N)N)C(=O)N[C@H](C(=O)N[C@@H](CCC(=O)O)C(=O)N[C@@H](Cc1c[nH]c2ccccc12)C(=O)N[C@@H](CC(C)C)C(=O)N[C@@H](CCCNC(=N)N)C(=O)N[C@@H](CCCCN)C(=O)N[C@@H](CCC(N)=O)C(=O)N[C@@H](CC(C)C)C(=O)N[C@@H](CCC(N)=O)C(=O)N[C@@H](CC(=O)O)C(=O)N[C@H](C(=O)N[C@@H](Cc1c[nH]cn1)C(=O)N[C@@H](CC(N)=O)C(=O)N[C@@H](Cc1ccccc1)C(=O)O)C(C)C)C(C)C` [[Orn^16,Gln^27]hPTH(1-34), [Orn^16,Gln^27]hPTH(1-45)] (H-SVSEIQLMHNLGKHL[Orn]SMERVEWLRKQLQDVHNF-OH) it was 1.82; in that of “SVSEIQLMHNLGKHLKDMERVEWLRKKLQDVHNF [[Lys^16,Asp^17]hPTH(I-34), [Lys^16 Asp^17]hPTH(1-3)]”, 1.24. The value for “SVSEIQLMHNLGKHKKKMERVEWLRKHLQDVHNF [[Lys^15,16,17,His^27]hPTH (1-34), [Lys^15,16,17,His^27]hPTH(1-34)]” was 7.47.

Consider `CC[C@H](C)[C@H](NC(=O)[C@H](CCC(=O)O)NC(=O)[C@H](CO)NC(=O)[C@@H](NC(=O)[C@@H](N)CO)C(C)C)C(=O)N[C@@H](CCC(N)=O)C(=O)N[C@@H](CC(C)C)C(=O)N[C@@H](CCSC)C(=O)N[C@@H](Cc1c[nH]cn1)C(=O)N[C@@H](CC(N)=O)C(=O)N[C@@H](CC(C)C)C(=O)NCC(=O)N[C@@H](CCCCN)C(=O)N[C@@H](Cc1c[nH]cn1)C(=O)N[C@@H](CC(C)C)C(=O)N[C@@H](CC(N)=O)C(=O)N[C@@H](CO)C(=O)N[C@@H](CCSC)C(=O)N[C@@H](CCC(=O)O)C(=O)N[C@@H](CCCNC(=N)N)C(=O)N[C@H](C(=O)N[C@@H](CCC(=O)O)C(=O)N[C@@H](Cc1c[nH]c2ccccc12)C(=O)N[C@@H](CC(C)C)C(=O)N[C@@H](CCCNC(=N)N)C(=O)N[C@@H](CCCCN)C(=O)N[C@H](C(=O)N[C@@H](CC(C)C)C(=O)N[C@@H](CCC(N)=O)C(=O)N[C@@H](CC(=O)O)C(=O)N[C@H](C(=O)N[C@@H](Cc1c[nH]cn1)C(=O)N[C@@H](CC(N)=O)C(=O)N[C@@H](Cc1ccccc1)C(=O)O)C(C)C)[C@@H](C)O)C(C)C` [[Thr^27]hPTH(1-34)], for which the “Biological Activity, Represented by Relative Activity to hPTH(1-34)” value worked out at 0.96.

Turning to `CC[C@H](C)[C@H](NC(=O)[C@H](CCC(=O)O)NC(=O)[C@H](CO)NC(=O)[C@@H](NC(=O)[C@@H](N)CO)C(C)C)C(=O)N[C@@H](CCC(N)=O)C(=O)N[C@@H](CC(C)C)C(=O)N[C@@H](CCSC)C(=O)N[C@@H](Cc1c[nH]cn1)C(=O)N[C@@H](CC(N)=O)C(=O)N[C@@H](CC(C)C)C(=O)NCC(=O)N[C@@H](CCCCN)C(=O)N[C@@H](Cc1c[nH]cn1)C(=O)N[C@@H](CC(C)C)C(=O)N[C@@H](CC(N)=O)C(=O)N[C@@H](CO)C(=O)N[C@@H](CCSC)C(=O)N[C@@H](CCC(=O)O)C(=O)N[C@@H](CCCNC(=N)N)C(=O)N[C@H](C(=O)N[C@@H](CCC(=O)O)C(=O)N[C@@H](Cc1c[nH]c2ccccc12)C(=O)N[C@@H](CC(C)C)C(=O)N[C@@H](CCCNC(=N)N)C(=O)N[C@@H](CCCCN)C(=O)N[C@@H](CCCCN)C(=O)N[C@@H](CC(C)C)C(=O)N[C@@H](CCC(N)=O)C(=O)N[C@@H](CC(=O)O)C(=O)N[C@H](C(=O)N[C@@H](Cc1c[nH]cn1)C(=O)N[C@@H](CC(N)=O)C(=O)N[C@@H](Cc1ccccc1)C(=O)O)C(C)C)C(C)C` [hPTH(1-34), reference compound], the “Biological Activity, Represented by Relative Activity to hPTH(1-34)” value is listed as 1.00.
